This is an account of results in patent US11939319B2, “Pyridinyl and pyrazinyl-(asa)indolsulfonamides” (UCB Pharma GmbH, priority 2018, dated 2024).

Where only a bound is given, the exact number is not on record here.

T1 sequence (Q13304 29-367 limits assumed): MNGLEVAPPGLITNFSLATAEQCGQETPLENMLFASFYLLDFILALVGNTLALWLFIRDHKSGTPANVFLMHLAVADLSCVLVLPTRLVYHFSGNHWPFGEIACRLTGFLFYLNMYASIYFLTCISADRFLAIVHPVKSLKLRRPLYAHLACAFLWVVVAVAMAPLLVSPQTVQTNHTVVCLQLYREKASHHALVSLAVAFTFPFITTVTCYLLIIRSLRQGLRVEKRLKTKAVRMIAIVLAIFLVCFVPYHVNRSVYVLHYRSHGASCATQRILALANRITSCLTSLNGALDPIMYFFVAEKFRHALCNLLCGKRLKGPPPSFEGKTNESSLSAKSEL

The first test has as its target T1, GPR17 (Homo sapiens, UniProt Q13304). The test is described as follows: cAMP accumulation functional assay (HTRF) in CHO hGPR17 cells. The format is cell-based. More on the design: host or cells: Flp-In T-REx CHO cells, expression induced with doxycycline. Particulars: Schild analysis against MDL29,951, 5 μM forskolin, activity range, read-out: cAMP assay pA2 (converted). The protocol:
(§1) Flp-In T-REx CHO cells stably expressing human GPR17 receptor (CHO hGPR17) from Evi Kostenis' lab (Bonn University, Germany) were cultured at 37° C. in a humidified atmosphere of 5% CO2. Cells were grown in DMEM with Nutrient Mixture F-12 supplemented with hygromycin B (500 μg/ml) and blasticidin (30 μg/ml). Expression from the Flp-In locus was induced by treatment with doxycycline (1 μg/ml) for 16-20 h prior assays.
GPR17 activation can also recruit Gi-type G-protein signaling, resulting in a decrease of intracellular cyclic adenosine monophosphate (cAMP). Intracellular cAMP changes can be measured using the HTRF cAMP dynamic assay kit from CisBio (Codolet, France). Using homogenous time-resolved fluorescence technology (HTRF), the assay is based on competition between native cAMP produced by cells and cAMP labelled with the dye d2. The tracer binding was determined by an anti-cAMP antibody labeled with cryptate.
CHO hGPR17 were detached with PBS containing EDTA and dispatched in black 384-well plates with 5,000 cells per well. Cells were first incubated for 30 minutes at room temperature in HBSS Hepes (pH 7.4) containing vehicle or varying concentrations of test GPR17 antagonist/inverse agonist compounds. Then, a dose response curve of MDL29,951 GPR17 agonist (typically from 10^−5M to 10^−10M) was added on vehicle and on each test GPR17 antagonist/inverse agonist compound concentration in a final volume of 20 μL HBSS Hepes buffer (pH 7.4) containing 1% DMSO, 5 μM forskolin and 0.1 mM IBMX. After 60 minutes incubation at room temperature, the reaction is terminated and the cells lysed by adding the d2 detection reagent and the cryptate reagent in 10 μL lysis buffer each according to manufacturer's instructions. After 60 minutes incubation, changes in cAMP concentrations are measured according to manufacturer's instructions using an Envision plate reader with laser excitation. All incubations were performed in duplicate. Data was analyzed using GraphPad Prism software using the 4-parameter logistic equation to measure MDL29,951 pEC50s in absence and presence of GPR17 antagonist/inverse agonist test compounds. Dose ratio (DR) were plotted against antagonist concentrations and Schild analysis provided estimated affinity pA2 of GPR17 antagonist/inverse agonist test compounds.
The activities of the Example compounds tested are depicted in the table below. The activity ranges A, B and C refer to pA2 values in the cAMP assay as follows: “A”: pA2 6.5≤x<7.5, “B”: pA2 7.5≤x<8.5, “C”: 8.5≤pA2.
(cAMP levels reflect the balance of adenylyl cyclase and phosphodiesterase activity.)
With `COc1nc(OCC(F)F)c(F)cc1NS(=O)(=O)c1c[nH]c2cc(OC(F)F)ccc12` [Example I-51, N-[6-(2,2-difluoroethoxy)-5-fluoro-2-methoxypyridin-3-yl]-6-(difluoromethoxy)-1H-indole-3-sulfonamide], the Kb was at most 3.16 nM.

For the molecule `O=S(=O)(Nc1cc(F)c(OCC(F)F)nc1F)c1c[nH]c2cc(C(F)F)ccc12` [Example I-52, N-[6-(2,2-difluoroethoxy)-2,5-difluoropyridin-3-yl]-6-(difluoromethyl)-1H-indole-3-sulfonamide], the Kb was 3.16 to 31.6 nM.

Regarding `COc1nc(OCC(F)F)ccc1NS(=O)(=O)c1c[nH]c2nc(C(F)F)ccc12` [Example I-53, N-[6-(2,2-difluoroethoxy)-2-methoxypyridin-3-yl]-6-(difluoromethyl)-1H-pyrrolo[2,3-b]pyridine-3-sulfonamide], the Kb is 3.16 to 31.6 nM.

With `COc1nc(OCC(F)F)c(F)cc1NS(=O)(=O)c1c[nH]c2nc(C(F)F)ccc12` [Example I-54, N-[6-(2,2-difluoroethoxy)-5-fluoro-2-methoxypyridin-3-yl]-6-(difluoromethyl)-1H-pyrrolo[2,3-b]pyridine-3-sulfonamide], the Kb was at most 3.16 nM.

Consider `COc1nc(OCCF)c(F)cc1NS(=O)(=O)c1c[nH]c2nc(C(F)F)ccc12` [Example I-55, 6-(difluoromethyl)-N-[5-fluoro-6-(2-fluoroethoxy)-2-methoxypyridin-3-yl]-1H-pyrrolo[2,3-b]pyridine-3-sulfonamide], for which the Kb was 3.16 to 31.6 nM.

As for `COc1nc(OC)c(NS(=O)(=O)c2c[nH]c3nc(C(F)F)ccc23)cc1F` [Example I-56, 6-(difluoromethyl)-N-(5-fluoro-2,6-dimethoxypyridin-3-yl)-1H-pyrrolo[2,3-b]pyridine-3-sulfonamide], the Kb was 3.16 to 31.6 nM.

Take `Cc1nc(F)c(NS(=O)(=O)c2c[nH]c3nc(C(F)F)ccc23)cc1F` [Example I-57, 6-(difluoromethyl)-N-(2,5-difluoro-6-methylpyridin-3-yl)-1H-pyrrolo[2,3-b]pyridine-3-sulfonamide]: the Kb is 3.16 to 31.6 nM.

On to `COc1nc(OCCOC(F)F)c(F)cc1NS(=O)(=O)c1c[nH]c2nc(C(F)F)ccc12` [Example I-58, N-[6-[2-(difluoromethoxy)ethoxy]-5-fluoro-2-methoxypyridin-3-yl]-6-(difluoromethyl)-1H-pyrrolo[2,3-b]pyridine-3-sulfonamide], for which the Kb is at most 3.16 nM.

Take `COc1nc(OC(F)F)c(F)cc1NS(=O)(=O)c1c[nH]c2cc(C)ccc12` [Example I-60, N-[6-(difluoromethoxy)-5-fluoro-2-methoxypyridin-3-yl]-6-methyl-1H-indole-3-sulfonamide]: the Kb is at most 3.16 nM.

`COc1ccc(NS(=O)(=O)c2c[nH]c3cc(Cl)ccc23)c(OC)n1` [Example I-61, 6-chloro-N-(2,6-dimethoxypyridin-3-yl)-1H-indole-3-sulfonamide]: the Kb is 31.6 to 316 nM.

In the case of `COc1nc(OCC(F)F)c(F)cc1NS(=O)(=O)c1c[nH]c2cc(C(F)F)ccc12` [Example I-62, N-[6-(2,2-difluoroethoxy)-5-fluoro-2-methoxypyridin-3-yl]-6-(difluoromethyl)-1H-indole-3-sulfonamide], the Kb is at most 3.16 nM.

For the molecule `COc1ccc2c(S(=O)(=O)Nc3cc(F)c(OC(F)F)nc3OC)c[nH]c2c1` [Example I-63, N-[6-(difluoromethoxy)-5-fluoro-2-methoxypyridin-3-yl]-6-methoxy-1H-indole-3-sulfonamide], the Kb was at most 3.16 nM.

For `COc1ccc2c(S(=O)(=O)Nc3cc(F)c(OCC(F)F)nc3OC)c[nH]c2c1` [Example I-64, N-[6-(2,2-difluoroethoxy)-5-fluoro-2-methoxypyridin-3-yl]-6-methoxy-1H-indole-3-sulfonamide], the Kb was at most 3.16 nM.

`COc1nc(OCC(F)F)c(F)cc1NS(=O)(=O)c1c[nH]c2cc(C#N)ccc12` [Example I-65, 6-cyano-N-[6-(2,2-difluoroethoxy)-5-fluoro-2-methoxypyridin-3-yl]-1H-indole-3-sulfonamide]: the Kb is 3.16 to 31.6 nM.

Turning to `COc1nc(OC(F)F)c(F)cc1NS(=O)(=O)c1c[nH]c2cc(C#N)ccc12` [Example I-66, 6-cyano-N-[6-(difluoromethoxy)-5-fluoro-2-methoxypyridin-3-yl]-1H-indole-3-sulfonamide], the Kb is at most 3.16 nM.

As to `O=S(=O)(Nc1cc(F)c(OCC(F)F)nc1F)c1c[nH]c2cc(Cl)ccc12` [Example I-67, 6-chloro-N-[6-(2,2-difluoroethoxy)-2,5-difluoropyridin-3-yl]-1H-indole-3-sulfonamide], the Kb is at most 3.16 nM.

On to `COc1nc(OC(F)F)c(F)cc1NS(=O)(=O)c1c[nH]c2c1ccc1cccnc12` [Example I-68, N-[6-(difluoromethoxy)-5-fluoro-2-methoxypyridin-3-yl]-1H-pyrrolo[3,2-h]quinoline-3-sulfonamide], for which the Kb was at most 3.16 nM.

Consider `COc1nc(OCC(F)F)c(F)cc1NS(=O)(=O)c1c[nH]c2c1ccc1cccnc12` [Example I-69, N-[6-(2,2-difluoroethoxy)-5-fluoro-2-methoxypyridin-3-yl]-1H-pyrrolo[3,2-h]quinoline-3-sulfonamide], for which the Kb is at most 3.16 nM.

Consider `COc1nc(OCC(F)F)c(F)cc1NS(=O)(=O)c1c[nH]c2nc(Cl)c(Br)cc12` [Example I-71, 5-bromo-6-chloro-N-[6-(2,2-difluoroethoxy)-5-fluoro-2-methoxypyridin-3-yl]-1H-pyrrolo[2,3-b]pyridine-3-sulfonamide], for which the Kb was at most 3.16 nM.

For `COc1nc(Cl)c(F)cc1NS(=O)(=O)c1c[nH]c2nc(OCc3ccccc3)ccc12` [Example I-72, N-(6-chloro-5-fluoro-2-methoxypyridin-3-yl)-6-phenylmethoxy-1H-pyrrolo[2,3-b]pyridine-3-sulfonamide], the Kb is 31.6 to 316 nM.

For a further test, the target named is T1, GPR17. The test is described as follows: Calcium mobilization functional assay (Ca2+ assay) in CHO hGPR17 cells. On the set-up: host or cells: Flp-In T-REx CHO cells, expression induced with doxycycline. Particulars: inhibition of 50 nM MDL29,951 (GPR17 agonist), activity range, read-out: Ca^2+ assay pIC50 (converted). The test is classed as cell-based. Here is the method: as §1
GPR17 is a G-protein coupled receptor. GPR17 activation triggers Gq-type G-protein signaling resulting in endoplasmic reticulum calcium (Ca^2+) stores release in cytosol which can be measured using Calcium 5 dye, a fluorescent indicator dye of cytosolic Ca^2+ levels. The compounds of the present invention were assessed either in the Ca^2+ assay or in the GPR17 cAMP assay, described further below.
CHO hGPR17 were defrosted and seeded at a density of 20,000 cells per well into black 384-well plates with clear bottom. Cells were incubated overnight at 37° C. in a humidified atmosphere of 5% CO2. Sixteen to twenty hours after seeding, CHO hGPR17 were loaded for 60 min with Calcium 5 dye, a cytosolic Ca^2+ indicator fluorescent dye, according to manufacturer's instructions. Fluorescent signal relative to cytosolic Ca^2+ concentration was recorded over time at room temperature in FLIPR Tetra reader. Cells were first incubated for 30 minutes at room temperature in HBSS Hepes buffer pH 7.4 containing increasing concentrations of test compounds (typically 10^−11 M to 10^−6M). Then, 50 nM MDL29,951, a GPR17 agonist, was added to the cells. Inhibitory effects of varying concentrations test compounds were measured and resulting pIC50S were determined. All incubations were performed in duplicate and results were compared to a concentration response curve of GPR17 agonist and antagonist reference compounds. Analysis and curve fitting were performed in ActivityBase XE using XLfit 4-parameter logistic equation y=A+((B−A)/(1+((C/x)^D))) where A, B, C and D stand for minimum y, maximum y, IC50 and slope, respectively.
The activities of the Example compounds tested are depicted in the table 6 in Section B-IIB below. The activity ranges A, B and C refer to pIC50 values in the Ca^2+ assay as follows: “A”: pIC50 6.5≤x<7.5, “B”: pIC50 7.5≤x<8.5, “C”: 8.5≤pIC50
Background: Calcium flux is commonly read through the fluorescence of an indicator in the cells.
With `O=S(=O)(Nc1cc(F)cnc1F)c1c[nH]c2cc(Cl)ccc12` [Example I-1, 6-chloro-N-(2,5-difluoropyridin-3-yl)-1H-indole-3-sulfonamide], the IC50 was 31.6 to 316 nM.

For `COc1cc(NS(=O)(=O)c2c[nH]c3cc(Cl)ccc23)c(F)nc1Cl` [Example I-4, 6-chloro-N-(6-chloro-2-fluoro-5-methoxypyridin-3-yl)-1H-indole-3-sulfonamide], the IC50 is 31.6 to 316 nM.

As to `COc1ccc(NS(=O)(=O)c2c[nH]c3cc(Cl)ccc23)c(Cl)n1` [Example I-8, 6-chloro-N-(2-chloro-6-methoxypyridin-3-yl)-1H-indole-3-sulfonamide], the IC50 is 31.6 to 316 nM.

In the case of `COc1ncc(Cl)cc1NS(=O)(=O)c1c[nH]c2cc(Cl)ccc12` [Example I-17, 6-chloro-N-(5-chloro-2-methoxypyridin-3-yl)-1H-indole-3-sulfonamide], the IC50 was 31.6 to 316 nM.

For `N#Cc1ccc(NS(=O)(=O)c2c[nH]c3cc(Cl)ccc23)cn1` [Example I-19, 6-chloro-N-(6-cyanopyridin-3-yl)-1H-indole-3-sulfonamide], the IC50 is 31.6 to 316 nM.
